Source: ChEMBL document CHEMBL1141785, “Cimipronidine, a cyclic guanidine alkaloid from Cimicifuga racemosa” (J Nat Prod, 2005)
Activity calls are given as the source filed them. The rule behind the calls is not given here.

Biological target: 5-hydroxytryptamine receptor 7 (Homo sapiens) (UniProt P34969)
Assay: Binding affinity to 5HT7 receptor

5-hydroxytryptamine receptor 7 (Homo sapiens), sequence (P34969 whole entry): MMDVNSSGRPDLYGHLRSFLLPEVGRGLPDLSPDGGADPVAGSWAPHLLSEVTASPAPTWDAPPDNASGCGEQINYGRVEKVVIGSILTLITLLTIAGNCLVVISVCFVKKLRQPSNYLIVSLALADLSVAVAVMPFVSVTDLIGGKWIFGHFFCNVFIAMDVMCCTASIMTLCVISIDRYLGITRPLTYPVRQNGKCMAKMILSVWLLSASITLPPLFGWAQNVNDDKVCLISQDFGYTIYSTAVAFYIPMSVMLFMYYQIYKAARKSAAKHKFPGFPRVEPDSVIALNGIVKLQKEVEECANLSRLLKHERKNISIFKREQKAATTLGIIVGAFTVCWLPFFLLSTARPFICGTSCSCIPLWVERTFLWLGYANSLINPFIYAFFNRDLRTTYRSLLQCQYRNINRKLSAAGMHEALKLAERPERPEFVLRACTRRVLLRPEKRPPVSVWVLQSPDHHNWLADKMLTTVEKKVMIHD

Row | Activity | Structure (SMILES)
1 | Active | O=C(/C=C/c1ccc(O)c(O)c1)O[C@H](C(=O)O)[C@](O)(Cc1ccc(O)c(O)c1)C(=O)O
2 | Active | N=C(N)N1CCCC1CC(=O)O (configuration not stated)
